Data taken from patent US10421782B2, “Cyclic cationic peptides with antimicrobial activity” (I.C.F. S.R.L., priority 2012, dated 2019).
≈ marks a conversion by molar mass, not a printed value. Like-named read-outs stand apart in the source and are kept apart here. Where a SMILES comes first, the peptide text is derived from it. Bridges are numbered along the chain shown (N, C = ends).

Assays:
[1] = system: Escherichia coli ATCC 25922; assay type: cell-based
Experimental: (§1) For each bacterial strain, 3-5 morphologically similar colonies were drawn from fresh cultures, inoculated in Brain Hearth Infusion broth liquid medium and incubated at the temperature of 37° C. under shaking at 225 r.p.m. for 3-4 h. Subsequently, the bacterial suspension was centrifuged at 1000 g for 20 min and the thus obtained pellet was resuspended in phosphate buffer 10 mM. Turbidity was measured in a spectrophotometer with absorbance at 600 nm, equivalent in the range 0.08-0.13 to a concentration of about 10^8 CFU/ml. The bacterial suspension was diluted 1:100 in phosphate buffer 10 mM, and within 30 min 50 microliters of such bacterial suspension (10^6 CFU/ml) were inoculated in each well of the microtiter plate, to obtain a final bacterial concentration of about 5×10^5 CFU/ml.
(§2) Several peptides were tested for their ability to inhibit bacterial growth in liquid culture. Fifty microliters of peptide at a concentration comprised between about 0.2 mM and 50 mM were added in 96-well U-bottom plates containing liquid growth medium and one of the following bacteria: Escherichia coli ATCC 25922, P. aeruginosa ATCC 27853, Stenotrophomonas maltophilia ATCC 13637. After 2 hour incubation at 37° C., bacteria were transferred on a solid medium. As a growth control, bacterial cultures were cultured in the absence of peptides.
(§3) The bacterial suspension was put in contact for two hours with different concentrations of the peptide at the temperature of 37° C. After incubation, 20 μl were drawn from the wells of each dilution and seeded on solid medium, agar McConkey. The inoculum was evenly distributed on the agarized medium by means of a sterile disposable loop. After incubation for 24 h at the temperature of 37° C., counting of the bacterial colonies (CFU) was performed.

[2] = system: Pseudomonas aeruginosa ATCC 27853; assay type: cell-based
Experimental: as §1, §2, §3

[3] = further tests, test of Table 2a

| Molecule | MBC E. coli ATCC 25922 [1, 3] | MBC P. aeruginosa ATCC 27853 [2, 3] | MBC E. coli ATCC 25922 ([1]; ATCC 25922) | MBC P. aeruginosa ATCC 27853 ([2]; ATCC 27853) |
| --- | --- | --- | --- | --- |
| ANCWTRKIRGVVGVSCG [Peptide P195, reference compound] | inactive | inactive |  |  |
| CC[C@H](C)[C@H](NC(=O)[C@H](C)N)C(=O)N[C@H]1CSSC[C@@H](C(=O)N[C@@H](CCCCN)C(=O)O)NC(=O)[C@H](C)NC(=O)[C@H](CCCCN)NC(=O)[C@H](Cc2c[nH]c3ccccc23)NC(=O)[C@H](CCCCN)NC(=O)[C@H](Cc2c[nH]cn2)NC(=O)CNC(=O)[C@H](CCCNC(=N)N)NC(=O)[C@H](Cc2ccc(O)cc2)NC(=O)[C@H](CCCCN)NC(=O)[C@H](Cc2c[nH]c3ccccc23)NC(=O)[C@H]([C@@H](C)O)NC(=O)[C@H](CCCNC(=N)N)NC1=O [SEQ.ID.NO.: 4, Ala*Ile*Cys*Arg*Thr*Trp*Lys*Tyr*Arg*Gly*His*Lys*Trp*Lys*Ala*Cys*Lys*] (H-AICRTWKYRGHKWKACK-OH; disulfide 3-16; N-terminus and C-terminus assumed) |  |  | 17.37 mg/L (≈ 8.14 µM) | 1.14 mg/L (≈ 0.534 µM) |
| CC[C@H](C)[C@H](N)C(=O)N[C@@H](CCCNC(=N)N)C(=O)N[C@H]1CSSC[C@@H](C(=O)N[C@@H](CC(C)C)C(=O)O)NC(=O)[C@H](CCCCN)NC(=O)[C@H](CCCCN)NC(=O)[C@H](Cc2c[nH]c3ccccc23)NC(=O)[C@H](CCC(N)=O)NC(=O)[C@H](Cc2c[nH]cn2)NC(=O)CNC(=O)[C@H](CCCNC(=N)N)NC(=O)[C@H](Cc2ccc(O)cc2)NC(=O)[C@H](CC(N)=O)NC(=O)[C@H](Cc2c[nH]c3ccccc23)NC(=O)[C@H]([C@@H](C)O)NC(=O)[C@H](C)NC1=O [SEQ.ID.NO.: 10, Ile*Arg*Cys*Ala*Thr*Trp*Asn*Tyr*Arg*Gly*His*Gln*Trp*Lys*Lys*Cys*Leu*] (H-IRCATWNYRGHQWKKCL-OH; disulfide 3-16; N-terminus and C-terminus assumed) |  |  | 24.6 mg/L (≈ 11.4 µM) | 12.08 mg/L (≈ 5.59 µM) |
| C[C@@H](O)[C@@H]1NC(=O)[C@H](Cc2ccccc2)NC(=O)[C@@H](NC(=O)[C@H](CCCCN)NC(=O)[C@@H](N)CCCCN)CSSC[C@@H](C(=O)NCC(=O)O)NC(=O)[C@H](CCCCN)NC(=O)[C@H](CCCNC(=N)N)NC(=O)[C@H](Cc2ccc(O)cc2)NC(=O)[C@H](CC(N)=O)NC(=O)[C@H](CCCCN)NC(=O)CNC(=O)[C@H](CCCNC(=N)N)NC(=O)[C@H](Cc2c[nH]c3ccccc23)NC(=O)[C@H](CCCCN)NC(=O)[C@H](Cc2c[nH]c3ccccc23)NC1=O [SEQ.ID.NO.: 6, Lys*Lys*Cys*Phe*Thr*Trp*Lys*Trp*Arg*Gly*Lys*Asn*Tyr*Arg*Lys*Cys*Gly*] (H-KKCFTWKWRGKNYRKCG-OH; disulfide 3-16; N-terminus and C-terminus assumed) |  |  | 1.81 mg/L (≈ 0.827 µM) | 0.4 mg/L (≈ 0.183 µM) |
| AKCRPLHTRGKQSAVCV [Peptide P14, reference compound] | inactive | inactive |  |  |
| CC[C@H](C)[C@@H]1NC(=O)CNC(=O)[C@H](CCCNC(=N)N)NC(=O)[C@H](Cc2c[nH]c3ccccc23)NC(=O)[C@H]([C@@H](C)O)NC(=O)[C@H](Cc2c[nH]c3ccccc23)NC(=O)[C@H](CCCCN)NC(=O)[C@H](CC(C)C)NC(=O)[C@@H](NC(=O)[C@H](CC(N)=O)NC(=O)[C@@H](N)CCCNC(=N)N)CSSC[C@@H](C(=O)N[C@@H](CCCCN)C(=O)O)NC(=O)[C@H](CCCCN)NC(=O)[C@H](CC(C)C)NC(=O)[C@H](Cc2ccc(O)cc2)NC(=O)[C@H]([C@@H](C)O)NC1=O [SEQ.ID.NO.: 22, Arg*Asn*Cys*Leu*Lys*Trp*Thr*Trp*Arg*Gly*Ile*Thr*Tyr*Leu*Lys*Cys*Lys*] (H-RNCLKWTWRGITYLKCK-OH; disulfide 3-16; N-terminus and C-terminus assumed) | 11.72 mg/L (≈ 5.41 µM) | 1.08 mg/L (≈ 0.498 µM) |  |  |
